Source: US8859620B2, “Phthalanilate compounds and methods of use” (University of Notre Dame du Lac, priority 2009, dated 2014)
≈ marks a conversion by molar mass, not a printed value. Where two headings read alike, the source gives them in different places.

How the values were obtained:
[1] = system: Escherichia coli ATCC 29194; experiment: MIC, Table 12; type: cell-based; conditions: ATCC29194, Muller-Hinton II Broth
[2] = system: Proteus mirabilis ATCC 35659; experiment: MIC, Table 12; type: cell-based; conditions: ATCC35659, Muller-Hinton II Broth
Protocol: (§1) Table 12 illustrates the results and the minimal inhibitory concentration (MIC) for S. aureus, Enterococcus faecalis, Pseudomonas aeruginosa, Klebsiella pneumonia, and Proteus mirabilis. The inoculum is about 1.5×10^5 CFU/mL. The minimal inhibitory concentrations (MIC) were done in Muller-Hinton II Broth with the exception of Enterococcus faecalis ATCC 29212, which was done in Brain Heart Infusion Broth. The concentration of DMSO at 200 μg/mL was 10%.

[3] = system: Staphylococcus aureus (COLVA); experiment: MIC, Table 12; type: cell-based
Protocol: as §1

[4] = system: Pseudomonas aeruginosa ATCC 27853; experiment: MIC, Table 12; type: cell-based; conditions: ATCC27853, Muller-Hinton II Broth
Protocol: as §1

[5] = system: Staphylococcus aureus NRS100 (COL); experiment: MIC, Table 12; type: cell-based
Protocol: as §1

[6] = system: Staphylococcus aureus NRS1 (Mec^r. Vani); experiment: MIC, Table 12; type: cell-based
Protocol: as §1

[7] = system: Enterococcus faecalis ATCC 29212; experiment: MIC, Table 12; type: cell-based
Protocol: as §1

[8] = system: Staphylococcus aureus ATCC 29213; experiment: MIC, Table 12; type: cell-based
Protocol: as §1

[9] = system: Klebsiella pneumonia ATCC 33495; experiment: MIC, Table 12; type: cell-based; conditions: Klebsiella pneumoniae, ATCC33495, Muller-Hinton II Broth
Protocol: as §1

[10] = biological target: OXA-10 (class D β-lactamase) (Pseudomonas aeruginosa, UniProt P14489); experiment: β-Lactamase assay (nitrocefin colour change), OXA-10; type: biochemical; conditions: for OXA-10: Table 10, class symbols x/xx/xxx, key not given; for IC50: nitrocefin 100 μM, 10 nM enzyme, 5 min pre-incubation, read-out: IC50s OXA-10
OXA-10 (class D β-lactamase), sequence (P14489 20-266, species assumed): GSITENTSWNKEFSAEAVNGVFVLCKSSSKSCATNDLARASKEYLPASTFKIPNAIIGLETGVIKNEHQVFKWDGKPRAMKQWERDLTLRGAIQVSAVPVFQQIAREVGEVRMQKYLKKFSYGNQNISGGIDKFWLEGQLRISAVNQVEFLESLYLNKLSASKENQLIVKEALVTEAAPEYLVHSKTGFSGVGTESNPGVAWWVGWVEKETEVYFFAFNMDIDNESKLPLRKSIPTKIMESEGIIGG
Protocol: (§2) β-Lactamase Assays (TEM-1, P99, and OXA-10): The activity of the compounds of the invention (inhibitors) toward β-lactamases was evaluated using 96 well plates. The reaction mixture included 10 mM sodium phosphate, pH 7.0, 150 mM sodium chloride, 0.01% Triton X-100, 100 μM nitrocefin, 10 nM of β-lactamases (class A: TEM-1; class C: P99, or class D: OXA-10), and variable concentrations of the inhibitors in a total volume of 100 μL. β-Lactamases were pre-incubated with the compounds at room temperature for 5 minutes, and the assay was initiated by the addition of nitrocefin. The inhibition of the enzyme activity by the compounds was determined by monitoring color change (from yellow to red) of nitrocefin after 20 minutes. Stock solutions of the compounds were prepared in dimethyl sulfoxide (DMSO). No more than 5% DMSO was present in assays, unless noted otherwise. B1aR Assay: The surface domain of B1aR (1 μM) was added to each inhibitor (at various concentrations) in 100 mM sodium phosphate, 50 mM sodium bicarbonate, at pH 7.0. The reaction mixtures were incubated at room temperature for 20 minutes. BOCILLIN FL, a fluorogenic ligand, was added to a concentration of 20 μM in a final volume of 20 μL. The mixtures were incubated at 37° C. for 5 minutes, at which point the reactions were quenched by the addition of 15 μL of the SDS sample buffer (125 mM Tris, 4% SDS, 20% glycerol, 2% 2-mercaptoethanol, pH 6.8), and were boiled for 4 minutes. The samples were loaded onto 15% SDS-PAGE, the gel was developed and scanned using a Storm 840® Fluorimager. The fluorescent bands of BOCILLIN FL-labeled B1aR^S were analyzed by Image Quant 5.2 software. PBP2 Assay: The PBP2 assay was performed according to the methods of Villegas-Esterada et al. (J. Am. Chem. Soc. 2008, 130, 9212-9213).

[11] = biological target: TEM-1 (class A β-lactamase) (Escherichia coli, UniProt P62593); experiment: β-Lactamase assay (nitrocefin colour change), TEM-1; type: biochemical; conditions: for TEM-1: Table 10, class symbols x/xx/xxx, key not given
TEM-1 (class A β-lactamase), sequence (P62593 24-286 limits assumed): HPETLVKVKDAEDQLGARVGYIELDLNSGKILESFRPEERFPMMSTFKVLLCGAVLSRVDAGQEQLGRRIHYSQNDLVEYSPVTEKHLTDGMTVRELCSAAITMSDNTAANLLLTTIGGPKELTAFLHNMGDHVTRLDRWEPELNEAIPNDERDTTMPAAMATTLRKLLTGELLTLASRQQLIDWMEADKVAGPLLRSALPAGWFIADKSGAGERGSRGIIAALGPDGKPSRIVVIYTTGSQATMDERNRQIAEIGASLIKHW
Protocol: as §2

PBP2a = PBP2a (Staphylococcus aureus, UniProt P07944); experiment: PBP2 assay (Villegas-Esterada et al.); type: biochemical; conditions: Table 10
PBP2a, sequence (P07944 whole entry): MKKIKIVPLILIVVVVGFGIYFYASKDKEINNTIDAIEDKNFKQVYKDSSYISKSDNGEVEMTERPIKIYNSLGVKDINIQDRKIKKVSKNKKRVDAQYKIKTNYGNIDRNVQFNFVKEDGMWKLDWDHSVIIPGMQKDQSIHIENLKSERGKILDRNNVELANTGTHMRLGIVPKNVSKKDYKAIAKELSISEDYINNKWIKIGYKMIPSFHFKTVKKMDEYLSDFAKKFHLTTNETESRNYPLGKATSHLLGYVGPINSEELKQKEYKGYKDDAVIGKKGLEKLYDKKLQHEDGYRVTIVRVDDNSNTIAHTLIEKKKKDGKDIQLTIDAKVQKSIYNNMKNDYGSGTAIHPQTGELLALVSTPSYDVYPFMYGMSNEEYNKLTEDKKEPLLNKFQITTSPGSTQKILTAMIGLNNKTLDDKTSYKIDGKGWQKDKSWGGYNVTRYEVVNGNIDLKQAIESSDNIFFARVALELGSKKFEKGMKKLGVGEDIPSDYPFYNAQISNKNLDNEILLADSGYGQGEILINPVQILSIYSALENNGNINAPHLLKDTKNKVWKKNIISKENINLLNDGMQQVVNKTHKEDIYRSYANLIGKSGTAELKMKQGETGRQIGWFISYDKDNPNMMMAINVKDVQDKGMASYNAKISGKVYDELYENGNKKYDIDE
Protocol: as §2

S. aureus NRS100 (Mec^R) = experiment: MIC against S. aureus NRS100 (Table 14); type: cell-based, Staphylococcus aureus; conditions: for MIC: Staphylococcus aureus, compounds dissolved in DMSO or 1% sodium carbonate, read-out: MIC; for inhibitory activity (in words): Table 14
Protocol: The recited compounds were dissolved in DMSO or in 1% sodium carbonate and transferred into micro titer plate to final concentration of 1000 μg/mL.

[12] = biological target: P99 (class C β-lactamase) (Enterobacter cloacae, UniProt P05364); experiment: β-Lactamase assay (nitrocefin colour change), P99; type: biochemical; conditions: for P99: Table 10, class symbols x/xx/xxx, key not given; for IC50: nitrocefin 100 μM, 10 nM enzyme, 5 min pre-incubation, read-out: IC50s P99
P99 (class C β-lactamase), sequence (P05364 21-381): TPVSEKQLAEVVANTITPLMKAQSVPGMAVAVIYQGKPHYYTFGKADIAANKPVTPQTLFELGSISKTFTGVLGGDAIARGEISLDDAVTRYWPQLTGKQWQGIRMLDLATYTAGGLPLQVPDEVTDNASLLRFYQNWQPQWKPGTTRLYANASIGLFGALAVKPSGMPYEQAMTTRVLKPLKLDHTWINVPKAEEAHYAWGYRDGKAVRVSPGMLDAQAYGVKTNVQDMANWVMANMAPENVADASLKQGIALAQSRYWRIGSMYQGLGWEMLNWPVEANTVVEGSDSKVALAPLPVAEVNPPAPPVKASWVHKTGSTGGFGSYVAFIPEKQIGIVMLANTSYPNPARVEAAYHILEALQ
Protocol: as §2

[13] = system: methicillin-resistant strains of S. aureus; experiment: MIC against methicillin-resistant S. aureus (Table 15); type: cell-based; conditions: Staphylococcus aureus, dissolved in 100% DMSO, diluted into Mueller Hinton II Broth to final 16 μg/mL
Source text: Table 15 illustrates the inhibition of methicillin-resistant strains of S. aureus by selected compounds of the invention.

surface domain of B1aR = surface domain of B1aR (Staphylococcus aureus, UniProt P18357); experiment: B1aR assay (BOCILLIN FL labeling, SDS-PAGE); type: binding, Staphylococcus aureus (MRSA); conditions: Table 10; class symbols x/xx/xxx, key not given
surface domain of B1aR, sequence (P18357 331-585): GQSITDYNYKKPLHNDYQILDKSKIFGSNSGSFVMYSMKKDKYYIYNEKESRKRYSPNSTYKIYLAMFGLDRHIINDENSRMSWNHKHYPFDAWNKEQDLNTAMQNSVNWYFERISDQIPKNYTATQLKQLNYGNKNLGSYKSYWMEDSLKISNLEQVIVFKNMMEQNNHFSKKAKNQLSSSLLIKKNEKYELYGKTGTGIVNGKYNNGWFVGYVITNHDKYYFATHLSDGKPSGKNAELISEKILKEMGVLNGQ
Protocol: as §2

S. aureus NRS11 (Mec^S) = experiment: MIC against S. aureus NRS11 (Table 13); type: cell-based, Staphylococcus aureus; conditions: for MIC: Staphylococcus aureus, compounds dissolved in DMSO or 1% sodium carbonate, read-out: MIC
Protocol: All recited compounds were dissolved in DMSO or in 1% sodium carbonate and transferred to micro titer plates to final concentrations of 1000 μg/mL.

Row | SMILES | OXA-10 [10] | IC50 [10] | IC50 [11] | TEM-1 [11] | PBP2a* (inhibitory concentration) (PBP2a) | MIC (S. aureus NRS100 (Mec^R)) | P99 [12] | IC50 [12] | MIC [13] | BlaR (surface domain of B1aR) | other results
1 | O=C(O)c1c(Br)c(Br)c(Br)c(Br)c1C(=O)Nc1ccc(OCc2ccccc2)c(Cl)c1 [Compound 239] |  |  |  |  |  |  |  |  |  |  | MIC [1]: 400 µg/mL (≈ 574 µM); MIC [2]: 400 µg/mL (≈ 574 µM); MIC ([3]; Staphylococcus aureus): 25 µg/mL (≈ 35.8 µM); MIC [4]: 200 µg/mL (≈ 287 µM); MIC ([5]; Staphylococcus aureus NRS100 (COL), Muller-Hinton II Broth, read-out: MIC): 100 µg/mL (≈ 143 µM); MIC ([6]; Staphylococcus aureus NRS1 (Mec^r. Vani), Muller-Hinton II Broth, read-out: MIC): 50 µg/mL (≈ 71.7 µM); MIC ([7]; ATCC29212, Enterococcus faecalis ATCC 29212, Brain Heart Infusion Broth, inoculum about 1.5×10^5 CFU/mL, read-out: MIC): 200 µg/mL (≈ 287 µM); MIC ([8]; ATCC29213, Staphylococcus aureus ATCC 29213, Muller-Hinton II Broth, read-out: MIC): 25 µg/mL (≈ 35.8 µM); MIC [9]: 200 µg/mL (≈ 287 µM)
2 | CCCCCCCCOc1ccc(NC(=O)c2ccccc2C(=O)O)cc1Cl [Compound 300] | xx | 30.7 ± 2.8 µM | 0.7 ± 0.08 µM | xxx | xxx | 8 µg/mL (≈ 19.8 µM) | xx | 10.3 ± 0.4 µM | 16 µg/mL (≈ 39.6 µM) |  | 
3 | CCCCCCCCOc1ccc(NC(=O)c2c(Br)c(Br)c(Br)c(Br)c2C(=O)O)cc1Cl [Compound 303] |  |  |  |  |  | 4 µg/mL (≈ 5.56 µM) |  |  | 4 µg/mL (≈ 5.56 µM) | xx | 
4 | CCCCCCCCOc1ccc(NC(=O)c2c(Br)c(Br)c(Br)c(Br)c2C(=O)O)cn1 [Compound 346] | xxx | 13.1 ± 0.8 µM | 2.8 ± 0.3 µM | xxx |  | < 8 µg/mL | xxx | 7.8 ± 1.2 µM | 8 µg/mL (≈ 11.7 µM) |  | MIC (S. aureus NRS11 (Mec^S)): < 8 µg/mL; inhibitory properties (in words) (S. aureus NRS11 (Mec^S); Table 13): significant inhibitory properties; inhibitory activity (in words) (S. aureus NRS100 (Mec^R)): significant inhibitory activity
5 | Cc1ccccc1COc1ccc(NC(=O)c2c(Br)c(Br)c(Br)c(Br)c2C(=O)O)cc1Cl [Compound 386] | xxx | 31.6 ± 3.5 µM | 7.4 ± 1.2 µM | xxx | xxx | 8 µg/mL (≈ 11.2 µM) | xxx | 15.3 ± 1.6 µM | 16 µg/mL (≈ 22.5 µM) | xxx | 
6 | O=C(O)c1c(Br)c(Br)c(Br)c(Br)c1C(=O)Nc1ccc(OCc2cccc(C(F)(F)F)c2)c(Cl)c1 [Compound 390] | xxx | 14.2 ± 1.1 µM | 1.9 ± 0.1 µM | xxx | xxx | < 8 µg/mL | xxx | 6 ± 0.8 µM | 8 µg/mL (≈ 10.5 µM) |  | MIC (S. aureus NRS11 (Mec^S)): < 8 µg/mL; inhibitory activity (in words) (S. aureus NRS100 (Mec^R)): significant inhibitory activity
7 | O=C(O)c1c(Cl)c(Cl)c(Cl)c(Cl)c1C(=O)Nc1ccc(Oc2cc(C(F)(F)F)cc(C(F)(F)F)c2)cc1 [Compound 413] | xxx | 80.8 ± 7 µM | 27 ± 2.9 µM | xxx | xxx | 8 µg/mL (≈ 13.2 µM) | xxx | 31.2 ± 6.4 µM | 16 µg/mL (≈ 26.4 µM) |  | 
8 | O=C(O)c1c(Br)c(Br)c(Br)c(Br)c1C(=O)Nc1ccc(Oc2cc(C(F)(F)F)cc(C(F)(F)F)c2)cc1 [Compound 414] | xxx | 19.5 ± 2 µM | 4.5 ± 0.4 µM | xxx | xxx | 4 µg/mL (≈ 5.1 µM) | xxx | 12 ± 0.5 µM | 4 µg/mL (≈ 5.1 µM) | xxx | 
9 | O=C(O)c1c(Cl)c(Cl)c(Cl)c(Cl)c1C(=O)Nc1ccc(OCc2cccc(OC(F)(F)F)c2)c(Cl)c1 [Compound 419] | xxx | 10.8 ± 0.7 µM | 2.3 ± 0.1 µM | xxx | xxx | 8 µg/mL (≈ 13.3 µM) | xx | 13 ± 2 µM | 8 µg/mL (≈ 13.3 µM) | xxx | 
10 | O=C(O)c1c(Br)c(Br)c(Br)c(Br)c1C(=O)Nc1ccc(OCc2cccc(OC(F)(F)F)c2)c(Cl)c1 [Compound 420] | xxx | 8.4 ± 1.1 µM | 1.6 ± 0.1 µM | xxx | xxx | 8 µg/mL (≈ 10.2 µM) | xx | 6.9 ± 1.5 µM | 4 µg/mL (≈ 5.12 µM) | xxx | 
11 | Cc1onc(-c2ccccc2)c1C(=O)N[C@@H]1C(=O)N2[C@@H]1SC(C)(C)[C@@H]2C(=O)O [Oxaxillian, reference compound] |  |  |  |  |  |  |  |  |  |  | MIC ([3]; Staphylococcus aureus (COLVA), Muller-Hinton II Broth): 500 µg/mL (≈ 1250 µM); MIC ([5]; Staphylococcus aureus NRS100 (COL), Muller-Hinton II Broth): 500 µg/mL (≈ 1250 µM); MIC ([6]; Staphylococcus aureus NRS1 (Mec^r. Vani), Muller-Hinton II Broth): 500 µg/mL (≈ 1250 µM); MIC ([7]; Enterococcus faecalis ATCC 29212, Brain Heart Infusion Broth, inoculum about 1.5×10^5 CFU/mL): 8 µg/mL (≈ 19.9 µM); MIC ([8]; Staphylococcus aureus ATCC 29213, Muller-Hinton II Broth): <0.5 µg/mL
12 | CN[C@H](CC(C)C)C(=O)N[C@H]1C(=O)N[C@@H](CC(N)=O)C(=O)N[C@H]2C(=O)N[C@H]3C(=O)N[C@H](C(=O)N[C@H](C(=O)O)c4cc(O)cc(O)c4-c4cc3ccc4O)[C@H](O)c3ccc(c(Cl)c3)Oc3cc2cc(c3O[C@@H]2O[C@H](CO)[C@@H](O)[C@H](O)[C@H]2O[C@H]2C[C@](C)(N)[C@H](O)[C@H](C)O2)Oc2ccc(cc2Cl)[C@H]1O [Vancomycin, reference compound] |  |  |  |  |  |  |  |  |  |  | MIC ([3]; Staphylococcus aureus): 1000 µg/mL (≈ 690 µM); MIC ([5]; Staphylococcus aureus, NRS100): 1 µg/mL (≈ 0.69 µM); MIC ([6]; Staphylococcus aureus, NRS1): 4 µg/mL (≈ 2.76 µM); MIC ([7]; Enterococcus faecalis, ATCC29212): 4 µg/mL (≈ 2.76 µM); MIC ([8]; Staphylococcus aureus, ATCC29213): 1 µg/mL (≈ 0.69 µM)
